Test results: EP0536424A1, “NOVEL BENZOPYRAN DERIVATIVE” (Japan Tobacco Inc., priority 1991, dated 1992)
Read-outs that look alike come from different tables or passages of the source.

Tests used:
[1] = test system: aorta thoracica of a male Wister rat; experiment: Blood vessel relaxing action (relaxation of phenylephrine-contracted, endothelium-denuded spiral strip); settings: concentration inhibiting 50% of the contraction achieved by phenylephrine (10⁻⁶ M), compound 10⁻⁸ to 10⁻⁵ M added cumulatively, 37°C, read-out: IC₅₀
Method: Preparation of the extracted blood vessel sample and the experiment were conducted by the methods of Toda et al. described in J. Cardiovasc. Pharmacol., 7,1118 (1985). The aorta thoracica of a male Wister rat was used as a sample. To be more specific, a spiral piece was prepared by peeling endothelium about 1 cm long from the artery to provide the sample. The endothelium was peeled off by rubbing with a swab. A Krebs-Hensterite solution of 37°C saturated with 95% O₂ and 5% CO₂ was used as a nutrient solution. After application of 1g as suspending load to the sample, changes in tension were measured by rectigraph via an isometric transducer. After the aorta thoracica was contracted by phenylephrine (10⁻⁶ M), a compound to be examined (an example compound) of 10⁻⁸ to 10⁻⁵ M was cumulatively added to determine the relaxing action of the compound quantitatively. The relaxing effect of the example compound was determined in terms of the concentration IC₅₀ of the compound required for inhibiting 50% of the contraction achieved by phenylephrine (10⁻⁶ M). Lema Kalin was used as reference compound A. On the other hand, reference compound B was provided by N'-cyano-N-(trans-6-cyano-3,4-dihydro-2,2-dimethyl-3-hydroxy-2H-1-benzopyran-4-yl)-benzamidine. […]

[2] = test system: coronary blood flow rate; experiment: Action on the coronary blood flow rate in dog (anesthetized, left coronary artery perfused with femoral arterial blood); type: in vivo; settings: administered into the coronary artery; for ED 50: dose increasing coronary blood flow rate by 50% of the reaction caused by niphedipine 1 µg (set at 100%); for Durationng: time during which the compound produced at least 50% of its efficacy at the ED₅₀ dosage
Method: Dogs with ether sex were anesthetized with pentobarbital (30 mg/kg,intravenous administration), followed by intravenous heparin administration (500 U/kg) to the dogs under artificial respiration. Then, according to Yago's method described in Folia pharmacol. japon., 57,380 (1961), the left coronary artery was perfused with the right femoral arterial blood so as to measure the blood perfusion amount with an electromagnetic blood flow meter. The example compound was administered into the coronary artery by using a micro syringe just before a stainless steel cannula inserted into the coronary artery. The increase in the coronary blood flow rate caused by the example compound was determined by standardizing the reactivity among the specimen subject, with the reaction caused by the niphedipine administration (1 µg) into the coronary artery of the specimen subject being set at 100%. To be more specific, the intensity of the action due to the example compound was determined in terms of ED₅₀ required for increasing the coronary blood flow rate by 50% on the basis of the reaction caused by niphedipine administered into the coronary artery in an amount of 1 µg. Further, the duration of the effect produced by the example compound was determined in terms of the time (minutes) during which the compound produced at least 50% of efficacy on the basis that the efficacy of the compound in the ED₅₀ dosage noted above was set at 100%. […]

| IC50 ([1]; Rattus norvegicus) [nM] | IC50 [1] [nM] | SMILES | ED 50 [2] [µg] | Durationng [2] [minuted] |
| --- | --- | --- | --- | --- |
| 600 |  | CC1(C)Oc2ccc(C#N)cc2[C@@H](NC(=NC#N)c2cccnc2)[C@@H]1O (relative stereo) [Example 3, N'-cyano-N-(trans-6-cyano-3,4-dihydro-2,2-dimethyl-3-hydroxy-2H-1benzopyran-4-yl]-3-pyridinecarboxamidine] | 1.9 | 4.0 |
| 1000 |  | CC1(C)Oc2ccc(C#N)cc2[C@@H](NC(=N[N+](=O)[O-])c2ccccn2)[C@@H]1O (relative stereo) [Example 14, N-(trans-6-cyano-3,4-dihydro-2,2-dimethyl-3-hydroxy-2H-1-benzopyran-4yl)-N'-nitro-2-pyridinecarboxamidine] |  |  |
| 60 |  | CC1(C)Oc2ccc(C#N)cc2[C@@H](NC(=NC#N)c2ccc(F)cc2)[C@@H]1O (relative stereo) [Example 16, N'-cyano-N-(trans-6-cyano-3,4-dihydro-2,2-dimethyl-3-hydroxy-2H-1-benzopyran-4-yl)-4-fluorobenzamidine] | 1.5 | 2.5 |
| 1000 |  | CC1(C)Oc2ccc(C#N)cc2[C@@H](NC(=NC#N)c2ccccc2)[C@@H]1O (relative stereo) [Reference Compound B, N'-cyano-N-(trans-6-cyano-3,4-dihydro-2,2-dimethyl-3-hydroxy-2H-1-benzopyran-4-yl)-benzamidine, reference compound] | 4.2 | 1.9 |
|  | 400 | CC1(C)Oc2ccc(C#N)cc2[C@@H](N2CCCC2=O)[C@@H]1O [Reference Compound A, Lema Kalin, reference compound] | 1.1 | 2.5 |
